# Molecular target: T1, human GPR119 (Homo sapiens, UniProt Q8TDV5)
# T1 sequence (Q8TDV5 1-308 limits assumed): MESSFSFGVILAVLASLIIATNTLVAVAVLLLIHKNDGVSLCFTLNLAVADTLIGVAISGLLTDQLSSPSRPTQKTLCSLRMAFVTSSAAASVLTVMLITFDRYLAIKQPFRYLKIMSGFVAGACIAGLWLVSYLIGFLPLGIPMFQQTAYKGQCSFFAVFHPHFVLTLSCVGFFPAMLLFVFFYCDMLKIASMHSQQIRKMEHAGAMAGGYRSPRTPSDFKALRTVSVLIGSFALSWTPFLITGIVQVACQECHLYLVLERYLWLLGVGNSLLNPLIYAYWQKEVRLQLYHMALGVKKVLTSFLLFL
# Test: Measurement of GPR119 signaling (cAMP assay; LANCE kit or HTRF) in HEK293 cells stably transfected with human GPR119
# Type: cell-based
# Conditions: agonist-stimulated cAMP in HEK293 cells expressing human GPR119
# In short: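 LANCE method: cAMP detected with Eu-chelate/biotin-cAMP tracer, 3 h, read at 665 nm, converted via cAMP standards; basal from DMSO, maximum from internal agonist, 4-parameter fit.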
row,SMILES,EC50
1,"CC(O)CS(=O)(=O)c1ccc(COC[C@@H]2C[C@@H]2C2CCN(c3ncc(F)cn3)CC2)c(F)c1 (stereo partly drawn) [Example 96, 1-({4-[({(1R,2R)-2-[1-(5-fluoropyrimidin-2-yl)piperidin-4-yl]cyclopropyl}methoxy)methyl]-3-fluorophenyl}sulfonyl)propan-2-ol]",21.9 nM
2,"CC(O)CS(=O)(=O)c1ccc(COC[C@@H]2C[C@@H]2C2CCN(c3ncc(Cl)cn3)CC2)c(F)c1 (stereo partly drawn) [Example 95, 1-({4-[({(1R,2R)-2-[1-(5-chloropyrimidin-2-yl)piperidin-4-yl]cyclopropyll}methoxy)methyl]-3-fluorophenyl}sulfonyl)propan-2-ol]",2.4 nM
3,"CCc1cnc(N2CCC([C@H]3C[C@H]3COCc3ccc(-c4ccc(C)nn4)cc3F)CC2)nc1 [Example 100, 3-{4-[({(1R,2R)-2-[1-(5-ethylpyrimidin-2-yl)piperidin-4-yl]cyclopropyl}methoxy)methyl]-3-fluorophenyl}-6-methylpyridazine]",1 nM
4,"CCc1cnc(N2CCC([C@H]3C[C@H]3COCc3ccc(-c4cccnn4)cc3F)CC2)nc1 [Example 99, 3-{4-[({(1R,2R)-2-[1-(5-ethylpyrimidin-2-yl)piperidin-4-yl]cyclopropyl}methoxy)methyl]-3-fluorophenyl}pyridazine]",0.1 nM
5,"CCS(=O)(=O)c1ccc(COC[C@@H]2C[C@@H]2C2CCN(c3nc(C4CC4)no3)CC2)cc1F [Example 39, 1-(3-cyclopropyl-1,2,4-oxadiazol-5-yl)-4-[(1R,2R)-2-({[3-fluoro-4-(ethylsulfonyl)benzyl]oxy}methyl)cyclopropyl]piperidine]",0.6 nM
6,"CC(C)(C)OC(=O)N1CCC([C@H]2C[C@H]2COCc2cc(F)c(S(C)(=O)=O)c(F)c2)CC1 [Example 44, tert-butyl 4-[(1R,2R)-2-({[3,5-difluoro-4-(methylsulfonyl)benzyl]oxy}methyl)cyclopropyl]piperidine-1-carboxylate]",14.8 nM
7,"CCc1cnc(N2CCC([C@H]3C[C@H]3COCc3ccc(S(=O)(=O)CC)cc3)CC2)nc1 [Example 57, 5-ethyl-2-{4-[(1R,2R)-2-({[4-(ethylsulfonyl)benzyl]oxy}methyl)cyclopropyl]piperidin-1-yl}pyrimidine]",0.3 nM
8,CS(=O)(=O)c1ccc(COC[C@@H]2C[C@@H]2C2CCN(c3ncc(Br)cn3)CC2)c(F)c1 [Example 70],0.19 nM
9,"CCc1cnc(N2CCC([C@H]3C[C@H]3COCc3ccc(CCO)cc3)CC2)nc1 [Example 60, 2-{4-[({(1R,2R)-2-[1-(5-ethylpyrimidin-2-yl)piperidin-4-yl]cyclopropyl}methoxy)methyl]phenyl}ethanol]",2.5 nM
10,"CS(=O)(=O)c1ccc(COC[C@@H]2C[C@@H]2C2CCN(c3ncc(Cl)cn3)CC2)cc1 [Example 14, 5-chloro-2-{4-[(1R,2R)-2-({[4-(methylsulfonyl)benzyl]oxy}methyl)cyclopropyl]piperidin-1-yl}pyrimidine]",0.7 nM
11,"O=S(=O)(CCO)c1ccc(COC[C@@H]2C[C@@H]2C2CCN(c3ncc(C4CC4)cn3)CC2)nc1 [Example 90, 2-({6-[({(1R,2R)-2-[1-(5-cyclopropylpyrimidin-2-yl)piperidin-4-yl]cyclopropyl}methoxy)methyl]pyridin-3-yl}sulfonyl)ethanol]",23 nM
12,"CCc1noc(N2CCC([C@H]3C[C@H]3COCc3ccc(S(C)(=O)=O)c(F)c3)CC2)n1 [Example 36, 1-(3-ethyl-1,2,4-oxadiazol-5-yl)-4-[(1R,2R)-2-({[3-fluoro-4-(methylsulfonyl)benzyl]oxy}methyl)cyclopropyl]piperidine]",1.9 nM
13,CC(O)CS(=O)(=O)c1ccc(COC[C@@H]2C[C@@H]2C2CCN(C(=O)OC(C)(C)C)CC2)cc1 (stereo partly drawn) [Example 94],9.5 nM
14,"CC(C)(C)OC(=O)N1CCC([C@H]2C[C@H]2COCc2ccc(S(=O)(=O)CCO)cc2F)CC1 [Example 79, tert-butyl 4-{(1R,2R)-2-[({2-fluoro-4-[(2-hydroxyethyl)sulfonyl]benzyl}oxy)methyl]cyclopropyl}piperidine-1-carboxylate]",7.1 nM
15,CCc1cnc(N2CCC([C@H]3C[C@H]3[C@@H](COC)OCc3ccc(S(=O)(=O)CC)cc3)CC2)nc1 [Example 67],0.16 nM
16,"CCc1cnc(N2CCC([C@H]3C[C@H]3COCc3ccc(-c4ccncn4)cc3F)CC2)nc1 [Example 110, 4-{4-[({(1R,2R)-2-[1-(5-ethylpyrimidin-2-yl)piperidin-4-yl]cyclopropyl}methoxy)methyl]-3-fluorophenyl}pyrimidine]",1.5 nM
17,"COC(C)c1cnc(N2CCC([C@H]3C[C@H]3COCc3ccc(S(C)(=O)=O)cc3F)CC2)nc1 (single isomer, unassigned) [Example 125]",0.36 nM
18,"COC(C)c1cnc(N2CCC([C@H]3C[C@H]3COCc3ccc(S(C)(=O)=O)c(F)c3)CC2)nc1 (single isomer, unassigned) [Example 131]",1.03 nM
19,"CS(=O)(=O)c1c(F)cc(COC[C@@H]2C[C@@H]2C2CCN(c3ncc(C4CC4)cn3)CC2)cc1F [Example 48, 5-cyclopropyl-2-{4-[(1R,2R)-2-({[3,5-difluoro-4-(methylsulfonyl)benzyl]oxy}methyl)cyclopropyl]piperidin-1-yl}pyrimidine]",0.6 nM
20,"CCOc1cnc(N2CCC([C@H]3C[C@H]3COCc3ccc(S(C)(=O)=O)c(F)c3)CC2)nc1 [Example 129, 5-ethoxy-2-(4-((1R,2R)-2-(((3-fluoro-4-(methylsulfonyl)benzyl)oxy)methyl)cyclopropyl)piperidin-1-yl)pyrimidine]",1.65 nM

# Next, values leading:
row,EC50,SMILES
1,1.3 nM,CCCc1cnc(N2CCC([C@H]3C[C@H]3COCc3ccc(S(=O)(=O)CCO)cc3F)CC2)nc1 [Example 84]
2,5.6 nM,"CCc1cnc(N2CCC([C@H]3C[C@H]3COCc3ccc(-n4cnnn4)cn3)CC2)nc1 [Example 133, 2-(4-((1R,2R)-2-(((5-(1H-tetrazol-1-yl)pyridin-2-yl)methoxy)methyl)cyclopropyl)piperidin-1-yl)-5-ethylpyrimidine]"
3,0.6 nM,"CCc1cnc(N2CCC([C@H]3C[C@H]3COCc3ccc(-c4ccnnc4)cc3F)CC2)nc1 [Example 102, 4-{4-[({(1R,2R)-2-[1-(5-ethylpyrimidin-2-yl)piperidin-4-yl]cyclopropyl}methoxy)methyl]-3-fluorophenyl}pyridazine]"
4,0.6 nM,"CS(=O)(=O)c1ccc(COC[C@@H]2C[C@@H]2C2CCN(c3nc(C4CC4)no3)CC2)cc1F [Example 37, 1-(3-cyclopropyl-1,2,4-oxadiazol-5-yl)-4-[(1R,2R)-2-({[3-fluoro-4-(methylsulfonyl)benzyl]oxy}methyl)cyclopropyl]piperidine]"
5,5.9 nM,"CCc1cnc(N2CCC([C@H]3C[C@H]3COCc3ccc(-c4cnc(N)nc4)c(F)c3)CC2)nc1 [Example 118, 5-{4-[({(1R,2R)-2-[1-(5-ethylpyrimidin-2-yl)piperidin-4-yl]cyclopropyl}methoxy)methyl]-2-fluorophenyl}pyrimidin-2-amine]"
6,7.3 nM,"CC(O)CS(=O)(=O)c1ccc(COC[C@@H]2C[C@@H]2C2CCN(c3cnc(Cl)cn3)CC2)c(F)c1 (stereo partly drawn) [Example 98, 1-({4-[({(1R,2R)-2-[1-(5-chloropyrazin-2-yl)piperidin-4-yl]cyclopropyl}methoxy)methyl]-3-fluorophenyl}sulfonyl)propan-2-ol]"
7,0.4 nM,"CS(=O)(=O)c1ccc(COC[C@@H]2C[C@@H]2C2CCN(c3ncc(Cl)cn3)CC2)cc1F [Example 41, 5-chloro-2-{4-[(1R,2R)-2-({[3-fluoro-4-(methylsulfonyl)benzyl]oxy}methyl)cyclopropyl]piperidin-1-yl}pyrimidine]"
8,5.5 nM,"CCc1cnc(N2CCC([C@H]3C[C@H]3COCc3ccc(-c4ncno4)cc3)CC2)nc1 [Example 63, 5-ethyl-2-{4-[(1R,2R)-2-({[4-(1,2,4-oxadiazol-5-yl)benzyl]oxy}methyl)cyclopropyl]piperidin-1-yl}pyrimidine]"
9,3.2 nM,"CS(=O)(=O)c1ccc(COC[C@@H]2C[C@@H]2C2CCN(c3nc(C4CC4)no3)CC2)cc1 [Example 27, 1-(3-cyclopropyl-1,2,4-oxadiazol-5-yl)-4-[(1R,2R)-2-({[4-(methylsulfonyl)benzyl]oxy}methyl)cyclopropyl]piperidine]"
10,11.7 nM,"CC1(OC(=O)N2CCC([C@H]3C[C@H]3COCc3cc(F)c(S(C)(=O)=O)c(F)c3)CC2)CC1 [Example 49, 1-methylcyclopropyl 4-[(1R,2R)-2-({[3,5-difluoro-4-(methylsulfonyl)benzyl]oxy}methyl)cyclopropyl] piperidine-1-carboxylate]"
11,1.5 nM,"COC(C)c1cnc(N2CCC([C@H]3C[C@H]3COCc3ccc(S(C)(=O)=O)cc3F)CC2)nc1 (single isomer, unassigned) [Example 126]"
12,12 nM,"O=S(=O)(c1ccc(COC[C@@H]2C[C@@H]2C2CCN(c3nc(C4CC4)no3)CC2)cc1)C1CC1 [Example 28, 1-(3-cyclopropyl-1,2,4-oxadiazol-5-yl)-4-[(1R,2R)-2-({[4-(cyclopropylsulfonyl)benzyl]oxy}methyl)cyclopropyl]piperidine]"
13,2.4 nM,CS(=O)(=O)c1ccc(COC[C@@H]2C[C@@H]2C2CCN(c3ncc(F)cn3)CC2)c(F)c1 [Example 69]
